{"source": "paper PMC8286842", "about": "“The structures of E. coli NfsA bound to the antibiotic nitrofurantoin; to 1,4-benzoquinone and to FMN” (Biochemical Journal, 2021)", "molecular_target": "T1, NfsA (Escherichia coli, UniProt P17117)", "T1 construct": "untagged, dimer", "T1 sequence (P17117 1-240)": "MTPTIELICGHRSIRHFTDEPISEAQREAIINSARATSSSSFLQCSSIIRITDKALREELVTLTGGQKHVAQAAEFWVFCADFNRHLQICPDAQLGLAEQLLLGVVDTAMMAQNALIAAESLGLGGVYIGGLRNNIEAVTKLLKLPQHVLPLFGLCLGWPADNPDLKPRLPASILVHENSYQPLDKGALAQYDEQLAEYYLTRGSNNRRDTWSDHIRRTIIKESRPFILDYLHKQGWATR", "experiment": "X-ray crystal structure at […] Å with a second FMN as ligand; steady-state inhibition kinetics", "assay_type": "biochemical"}
{"compound": "Cc1cc2nc3c(=O)[nH]c(=O)nc-3n(C[C@H](O)[C@H](O)[C@H](O)COP(=O)(O)O)c2cc1C", "note": "[FMN]", "values": [{"measurement": "Ki", "result": "~8", "unit": "µM"}]}
